Measured values taken from paper PMC6917776, “Discovery of a chemical probe for PRDM9” (Nature Communications, 2019).
Where two headings read alike, the source gives them in different places.

Assay: CelltiterGlo viability cell assay
Assay type: cell-based
Details: human
Outline: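 Luminescent ATP-based viability (CelltiterGlo) was measured after 3 or 6 days of treatment at increasing concentrations from 0.01 μM up to 30 μM, with values expressed relative to DMSO-treated cells.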

[1] = HCC1143 breast cancer cells, HCC1143, 6 day, read-out: viability Replicate 3
[2] = HCC1143 breast cancer cells, HCC1143, 6 day, read-out: viability Average
[3] = HCC1143 breast cancer cells, HCC1143, 6 day, read-out: viability Replicate 1
[4] = HCC1143 breast cancer cells, HCC1143, 6 day, read-out: viability Replicate 2
[5] = HCC1806 breast cancer cells, HCC1806, 3 day, read-out: viability Average
[6] = HCC1806 breast cancer cells, HCC1806, 3 day, read-out: viability Replicate 1
[7] = HCC1806 breast cancer cells, HCC1806, 3 day, read-out: viability Replicate 2
[8] = HCC1806 breast cancer cells, HCC1806, 3 day, read-out: viability Replicate 3
[9] = HCC1806 breast cancer cells, HCC1806, 6 day, read-out: viability Average
[10] = HCC1806 breast cancer cells, HCC1806, 6 day, read-out: viability Replicate 1
[11] = HCC1806 breast cancer cells, HCC1806, 6 day, read-out: viability Replicate 2
[12] = HCC1806 breast cancer cells, HCC1806, 6 day, read-out: viability Replicate 3
[13] = HCC1806 cells, HCC1806, 3 day, read-out: viability Average
[14] = HCC1806 cells, HCC1806, 3 day, read-out: viability Replicate 1
[15] = HCC1806 cells, HCC1806, 3 day, read-out: viability Replicate 2
[16] = HCC1806 cells, HCC1806, 3 day, read-out: viability Replicate 3

COc1cc(OC)cc(-c2noc(N3CCN(C)C4(CCN(c5ccnc(C)c5)CC4)C3)n2)c1 [MRK-740] gave a viability at 6 day, 0.03 µM [1] of 104%, a viability at 6 day, 0.1 µM [2] of 105% and a viability at 6 day, 0.1 µM [3] of 103%. It also gave a viability at 6 day, 0.1 µM [4] of 102%, a viability at 6 day, 0.1 µM [1] of 111% and a viability at 6 day, 0.3 µM [2] of 110%. For the same compound, the viability at 6 day, 0.3 µM [3] was 109%, the viability at 6 day, 0.3 µM [4] was 111% and the viability at 6 day, 0.3 µM [1] was 111%. For the same compound, the viability at 6 day, 1 µM [2] was 112%, the viability at 6 day, 1 µM [3] was 114% and the viability at 6 day, 1 µM [4] was 108%. The viability at 6 day, 1 µM [1] was 113%, the viability at 6 day, 3 µM [2] was 108% and the viability at 6 day, 3 µM [3] was 106%. The viability at 6 day, 3 µM [4] was 109%, the viability at 6 day, 3 µM [1] was 110% and the viability at 6 day, 9.5 µM [2] was 79.4%. It also gave a viability at 6 day, 9.5 µM [3] of 79.5%, a viability at 6 day, 9.5 µM [4] of 78.6% and a viability at 6 day, 9.5 µM [1] of 80.2%. For the same compound, the viability at 6 day, 30 µM [2] was 18.9%, the viability at 6 day, 30 µM [3] was 20.9% and the viability at 6 day, 30 µM [4] was 18.4%. For the same compound, the viability at 6 day, 30 µM [1] was 17.3%, the viability at 3 day, 0.1 µM (HCC1143 cells, HCC1143, 3 day, read-out: viability Average) was 93.6% and the viability at 3 day, 0.1 µM (HCC1143 cells, HCC1143, 3 day, read-out: viability Replicate 1) was 95.6%. The viability at 3 day, 0.1 µM (HCC1143 cells, HCC1143, 3 day, read-out: viability Replicate 2) was 90.7%, the viability at 3 day, 0.1 µM (HCC1143 cells, HCC1143, 3 day, read-out: viability Replicate 3) was 94.6% and the viability at 3 day, 0.01 µM [5] was 107%. The viability at 3 day, 0.01 µM [6] was 103%, the viability at 3 day, 0.01 µM [7] was 110% and the viability at 3 day, 0.01 µM [8] was 107%. It also gave a viability at 3 day, 0.03 µM [5] of 102%, a viability at 3 day, 0.03 µM [6] of 99.9% and a viability at 3 day, 0.03 µM [7] of 101%. The viability at 3 day, 0.03 µM [8] was 104%, the viability at 3 day, 1 µM [5] was 103% and the viability at 3 day, 1 µM [6] was 104%. The viability at 3 day, 1 µM [7] was 111%, the viability at 3 day, 1 µM [8] was 94.5% and the viability at 3 day, 3 µM [5] was 89.8%. The viability at 3 day, 3 µM [6] was 92.2%, the viability at 3 day, 3 µM [7] was 107% and the viability at 3 day, 3 µM [8] was 70.5%. It also gave a viability at 3 day, 9.5 µM [5] of 37.6%, a viability at 3 day, 9.5 µM [6] of 40.7% and a viability at 3 day, 9.5 µM [7] of 51.7%. The viability at 3 day, 9.5 µM [8] was 20.5%, the viability at 3 day, 30 µM [5] was 11.6% and the viability at 3 day, 30 µM [6] was 13.2%. For the same compound, the viability at 3 day, 30 µM [7] was 14.9%, the viability at 3 day, 30 µM [8] was 6.61% and the viability at 6 day, 0.01 µM [9] was 102%. It also gave a viability at 6 day, 0.01 µM [10] of 107%, a viability at 6 day, 0.01 µM [11] of 100% and a viability at 6 day, 0.01 µM [12] of 99.6%. For the same compound, the viability at 6 day, 0.03 µM [9] was 106%, the viability at 6 day, 0.03 µM [10] was 111% and the viability at 6 day, 0.03 µM [11] was 101%. The viability at 6 day, 0.03 µM [12] was 106%, the viability at 6 day, 0.1 µM [9] was 106% and the viability at 6 day, 0.1 µM [10] was 107%. It also gave a viability at 6 day, 0.1 µM [11] of 106%, a viability at 6 day, 0.1 µM [12] of 106% and a viability at 6 day, 0.3 µM [9] of 109%. The viability at 6 day, 0.3 µM [10] was 113%, the viability at 6 day, 0.3 µM [11] was 106% and the viability at 6 day, 0.3 µM [12] was 108%. For the same compound, the viability at 6 day, 1 µM [9] was 103%, the viability at 6 day, 1 µM [10] was 102% and the viability at 6 day, 1 µM [11] was 101%. It also gave a viability at 6 day, 1 µM [12] of 107%, a viability at 6 day, 3 µM [9] of 63.9% and a viability at 6 day, 3 µM [10] of 63.2%. The viability at 6 day, 3 µM [11] was 58.6%, the viability at 6 day, 3 µM [12] was 69.8% and the viability at 6 day, 9.5 µM [9] was 24.9%. It also gave a viability at 6 day, 9.5 µM [10] of 23.5%, a viability at 6 day, 9.5 µM [11] of 25% and a viability at 6 day, 9.5 µM [12] of 26.3%. The viability at 6 day, 30 µM [9] was 4.91%, the viability at 6 day, 30 µM [10] was 5.1% and the viability at 6 day, 30 µM [11] was 5.11%. The viability at 6 day, 30 µM [12] was 4.53%, the viability at 3 day, 0.1 µM [13] was 110% and the viability at 3 day, 0.1 µM [14] was 122%. It also gave a viability at 3 day, 0.1 µM [15] of 110%, a viability at 3 day, 0.1 µM [16] of 97.6% and a viability at 3 day, 0.3 µM [13] of 106%. For the same compound, the viability at 3 day, 0.3 µM [14] was 109%, the viability at 3 day, 0.3 µM [15] was 108% and the viability at 3 day, 0.3 µM [16] was 101%. It also gave a viability at 3 day, 0.01 µM (MDA-MB-436 breast cancer cells, MDA MB436, 3 day, read-out: viability Average) of 104% and a viability at 3 day, 0.01 µM (MDA-MB-436 breast cancer cells, MDA MB436, 3 day, read-out: viability Replicate 1) of 123%.
